Series [1] relates to A/Lyon/969/09 (H1N1)pdm09 virus. Kind of series: microbe, parasite or virus in culture. It is filed as cell-based, influenza A(H1N1)pdm09 virus. The settings on record: Influenza A virus, H1N1, 48 h; pre-treatment/treatment in vitro; A549; […]; read-out: EC50.
Series [2] relates to MucilAir® human airway epithelium. The format is cell-based.
The test system of series [3] is MucilAir® human airway epithelia (HAE). Kind of series: LDH cytotoxicity in HAE. The note with it: oseltamivir 1 μM, diltiazem 90 μM, combinations.
Series [4] concerns influenza A/Quebec/144147/09 (H1N1)pdm09 virus. The format is in vivo, C57BL/6N mice. The settings on record: for Survival: mg/kg/day: oseltamivir 10, monensin 10, diltiazem 90, etilefrine 3; for Weight loss: oseltamivir 10, monensin 10, diltiazem 90 mg/kg/day.
Series [5] relates to B/Massachusetts/2/2106. Nature of the series: Antiviral efficacy in A549 cells, B strain. The format is cell-based, influenza virus.
Series [6] has as its system A(H1N1)pdm09 virus. It is filed as cell-based, influenza virus.
Series [7] concerns A/Texas/126/2016 (H3N2). Nature of the series: Antiviral efficacy in A549 cells, H3N2 strain. It is filed as cell-based, influenza virus.
The subject of series [8] is influenza A/Lyon/969/09 (H1N1)pdm09 virus. The format is cell-based.
Series [9] concerns influenza A/Quebec/144147/09 (H1N1)pdm09 virus. The format is in vivo, C57BL/6N mice. The settings on record: for Clinical benefit in terms of survival vs saline (placebo) group: mg/kg/day: oseltamivir 10, monensin 10, diltiazem 90, etilefrine 3, lanatoside C 100, prednisolone 5, flucytosine 240, felbinac 5, timolol 50.
The test system of series [10] is A/Lyon/969/09 (H1N1)pdm09 virus. Nature of the series: microbe, parasite or virus in culture. It is filed as cell-based, influenza A(H1N1)pdm09 virus. The settings on record: Influenza A virus, 6 h pre-treatment only, A549, Figure 2B.
Where [11] appears, read: 24 h p.i., oseltamivir 0.1 µM, diltiazem 9 µM or both.
[12] abbreviates: 48 h p.i., oseltamivir 0.1 µM, diltiazem 9 µM or both.
[13] abbreviates: 72 h p.i., oseltamivir 0.1 µM, diltiazem 9 µM or both.
The mark [14] stands for this setting: 96 h p.i., oseltamivir 0.1 µM, diltiazem 9 µM or both.
[15] abbreviates: oseltamivir 10 mg/kg/day, diltiazem 90 mg/kg/day.
The mark [16] stands for this setting: oseltamivir 1 μM, diltiazem 90 μM.

pEC50: −log10 of the molar value. Like-named read-outs stand apart in the source and are kept apart here. Some results are limits rather than exact numbers.

Usually pEC50 stands for −log10 of the EC50, conventionally taken in molar units. With `COc1ccc([C@@H]2Sc3ccccc3N(CCN(C)C)C(=O)[C@@H]2OC(C)=O)cc1` [Diltiazem], in series [1], the pEC50 was 9.08. Further, the “Δ TEER (CI95)” value in [2] (setting [11]) was 35.10 (10.96 – 59.23) Ohm/cm^2; in series [2] (24 h p.i., oseltamivir 1 µM, diltiazem 90 µM or both), 86.13 (3.72 – 168.5) Ohm/cm^2; in series [2] (setting [12]), -48.31 (-180.1 – 83.47) Ohm/cm^2; in series [2] (48 h p.i., oseltamivir 1 µM, diltiazem 90 µM or both), 120.1 (-85.77 – 326.00) Ohm/cm^2; in [2] (setting [13]) it was -218.0 (255.6 – -180.4) Ohm/cm^2; in series [2] (72 h p.i., oseltamivir 1 µM, diltiazem 90 µM or both), -115.5 (-308.5 – 77.52) Ohm/cm^2. Moreover, the “Δ TEER (CI95)” value in series [2] (setting [14]) is recorded as -220.5 (-267.4 – -173.5) Ohm/cm^2. In addition, the “TEER during the time-course of infection” value in series [2] (oseltamivir 1 μM, diltiazem 90 μM or both) is on record as “partially buffered the TEER decrease”. In [3], the “Treatment-induced toxicity (LDH release)” value was “absence of treatment-induced toxicity”. Also, the “Hazard ratio (HR) for the saline group compared to treatment group (CI95)” value in [4] (diltiazem 45 mg/kg) is 7.62 (1.49–38.96); in [4] (setting [15]), 2.85 (0.56–14.47). The figures for the “Mice rescued from death” value in series [4] (half-dose diltiazem 45 mg/kg) and in series [4] (setting [15]) were 30% and 20%, respectively. Also, in [4], the Survival entry was “completely prevented mortality”. Also, the Weight loss entry in [4] is “reduced weight loss”. Also, the Mean weight loss result in [4] (mouse, in vivo) is reported as “significant improvement”. Moreover, the “Relative Viral production” value in [5] (dose CMAP) is 4.7 % of mock-treated; in series [5] (dose CMAP/10), 10.0 % of mock-treated; in series [7] (dose CMAP) it was 7.9 % of mock-treated; in series [7] (dose CMAP/10), 12.75 % of mock-treated. The Viral titer amounted to 3.97 log TCID50/ml in [5] (dose CMAP), 4.3 log TCID50/ml in [5] (dose CMAP/10), 4.92 log TCID50/ml in series [7] (dose CMAP) and 5.13 log TCID50/ml in [7] (dose CMAP/10). Moreover, the “Effect of virus pre-incubation on final viral titers vs PBS-incubated controls” value in series [6] (pre-incubation before infection) was “did not affect final viral titers”. Moreover, the “Viral titer, Dilution #2” value in [6] (virus 10^5 TCID50/mL pre-incubated 1 h, diltiazem 9 µM, etilefrine 18 µM, oseltamivir 1 µM) worked out at 4.63 log TCID50/ml. Further, in series [6] (virus 10^6 TCID50/mL pre-incubated 1 h, diltiazem 9 µM, etilefrine 18 µM, oseltamivir 1 µM), the “Viral titer, Dilution #1” value is recorded as 5.63 log TCID50/ml. In series [6] (virus pre-incubated 1 h, relative to PBS control), the “Mean relative Viral production” value is listed as 156.9 % of mock-treated. Moreover, the “Apical viral titer log TCID50/ml (CI95)” value is 6.47 (5.03 – 7.90) log TCID50/ml in series [8] (setting [11]); 8.91 (8.67 – 9.16) log TCID50/ml in series [8] (setting [12]); 8.21 (7.28 – 9.14) log TCID50/ml in series [8] (setting [13]); 7.32 (6.43 – 8.22) log TCID50/ml in [8] (setting [14]); 7.37 (5.97 – 8.76) log TCID50/ml in series [8] (96 h p.i., oseltamivir 1 µM, diltiazem 90 µM or both). Besides, the “Effect on viral replication vs untreated control” value in [8] (oseltamivir 0.1 μM, diltiazem 9 μM (CMAP) or both, from 5 h p.i., once daily 5 days) is reported as “no significant advantage over the untreated control”. For the same compound, the “Reduction in apical viral titers at 48 h p.i. compared to the untreated control” value in series [8] (setting [16]) is recorded as greater than 3 log. For the same compound, in series [8] (setting [16]), the “Virus on the basolateral medium” value is recorded as “No virus was detected”. Besides, the “Delay of the peak of viral production” value in series [8] (oseltamivir 1 μM, diltiazem 90 μM (10-fold CMAP)) is on record as 24 h. Moreover, in series [8] (oseltamivir 1 μM, diltiazem 90 μM or both, 48 h p.i. untreated vs. 72 h p.i. treated), the “Reduction in apical peak viral titers compared to the untreated control” value is greater than 2 log. Also, the “Clinical benefit in terms of survival vs saline (placebo) group” value in series [9] ([…]) is “significantly improved survival”. Also, the “Weight loss vs saline (placebo) group” value in series [9] ([…], oseltamivir 10, diltiazem 90, etilefrine 3 mg/kg/day) is reported as “significantly improved”. Also, the “Reduction in lung viral titers (LVTs) on day 5 p.i.” value in series [9] (mouse, in vivo) is given as “at least 1 log”.
In the case of `CC[C@@]1([C@@H]2O[C@@H]([C@H]3O[C@@](O)(CO)[C@H](C)C[C@@H]3C)C[C@@H]2C)CC[C@H]([C@]2(C)CC[C@]3(C[C@H](O)[C@@H](C)[C@@H]([C@@H](C)[C@@H](OC)[C@H](C)C(=O)O)O3)O2)O1` [Monensin], the pEC50 in series [1] is 8.49. Also, in series [4], the Survival result is reported as “completely prevented mortality” and the Weight loss result is “reduced weight loss”. For the same compound, the negative-log EC50 (pEC50) in [10] was 6.96. Moreover, the “Clinical benefit in terms of survival vs saline (placebo) group” value in [9] ([…]) was “clinical improvement”.
